The values below come from PMC8437142 (The Journal of physiology, 2021).

SMILES strings stand for the structures.

Series [1] is described as follows: Serum morphine and metabolites by UPLC-MS/MS after s.c. morphine. The following applies: rat, sc, 4 mg/kg.
The subject of another series is opioid receptors. The conditions noted are these: ref Lewis et al., 2010; Doyle & Murphy, 2018; cited from earlier work.

In the case of `CN1CC[C@]23c4c5ccc(O)c4O[C@H]2[C@@H](O[C@@H]2O[C@H](C(=O)O)[C@@H](O)[C@H](O)[C@H]2O)C=C[C@H]3[C@H]1C5` [Morphine-6-glucuronide, morphine-6-glucuronide], in series [1], the concentration at 4.5 h was less than 1 ng/mL.
With `CN1CC[C@]23c4c5ccc(O[C@@H]6O[C@H](C(=O)O)[C@@H](O)[C@H](O)[C@H]6O)c4O[C@H]2[C@@H](O)C=C[C@H]3[C@H]1C5` [Morphine-3-glucuronide, morphine-3-glucuronide], the “affinity for opioid receptors” value with opioid receptors was “no affinity”.
